Test results as given in publication PMC3319116 (Journal of Medicinal Chemistry, 2012).

Tested on: not listed separately
Assay: In vivo evaluation of brain penetration
Set-up: species or system rats
Details: Oral, 10 mg/kg, 60 min, unperfused brain

| SMILES | Brain Conc. |
| --- | --- |
| Cc1c(C(=O)N2CCC(NC(=O)NC(C)(C)C)(c3ccccc3)CC2)nn(-c2ccc(Cl)cc2Cl)c1-c1ccc(Cl)cc1 [Compound 17a, 3-tert-Butyl-1-(1-{[5-(4-chlorophenyl)-1-(2,4-dichlorophenyl)-4-methyl-1H-pyrazol-3-yl]carbonyl}-4-phenylpiperidin-4-yl)urea] | below the lower limit of quantitation |

Same assay, conditions: oral or ip, 10 mg/kg

| SMILES | bioavailable with oral or intra-peritoneal dosing |
| --- | --- |
| Cc1c(C(=O)NC2CCN(C(=O)OC(C)(C)C)CC2)nn(-c2ccc(Cl)cc2Cl)c1-c1ccc(Cl)cc1 [Compound 18a, tert-Butyl-4-[5-(4-chlorophenyl)-1-(2,4-dichlorophenyl)-4-methyl-1H-pyrazole-3-amido]piperidine-1-carboxylate] | bioavailable |
| Cc1c(C(=O)NC2CCN(C(=O)NC(C)(C)C)CC2)nn(-c2ccc(Cl)cc2Cl)c1-c1ccc(Cl)cc1 [Compound 18f, 1-N-tert-Butyl-4-C-5-(4-chlorophenyl)-1-(2,4-dichlorophenyl)-4-methyl-1H-pyrazole-3-piperidine-1,4-diamido] | bioavailable |
| Cc1c(C(=O)N2CCC(NC(=O)NC(C)(C)C)(c3ccccc3)CC2)nn(-c2ccc(Cl)cc2Cl)c1-c1ccc(Cl)cc1 [Compound 17a, 3-tert-Butyl-1-(1-{[5-(4-chlorophenyl)-1-(2,4-dichlorophenyl)-4-methyl-1H-pyrazol-3-yl]carbonyl}-4-phenylpiperidin-4-yl)urea] | bioavailable |

Target: T1, CB1 (Homo sapiens, UniProt P21554)
Assay: CB1 Gαq16-coupled intracellular calcium mobilization assay in CHO-K1 cells
Assay type: cell-based
Details: not given

T1 sequence (P21554 whole entry): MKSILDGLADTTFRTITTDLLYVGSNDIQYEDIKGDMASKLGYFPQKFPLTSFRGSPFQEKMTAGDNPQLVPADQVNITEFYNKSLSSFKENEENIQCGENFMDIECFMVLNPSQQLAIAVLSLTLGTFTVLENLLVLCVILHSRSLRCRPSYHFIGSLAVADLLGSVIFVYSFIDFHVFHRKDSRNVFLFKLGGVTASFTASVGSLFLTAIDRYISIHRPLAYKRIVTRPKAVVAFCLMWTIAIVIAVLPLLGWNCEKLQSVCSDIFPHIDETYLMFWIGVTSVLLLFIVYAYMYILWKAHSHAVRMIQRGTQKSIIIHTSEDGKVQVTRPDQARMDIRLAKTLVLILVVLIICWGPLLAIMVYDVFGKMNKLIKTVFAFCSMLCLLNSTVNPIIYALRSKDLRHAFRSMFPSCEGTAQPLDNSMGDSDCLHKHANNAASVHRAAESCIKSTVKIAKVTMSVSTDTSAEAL

| SMILES | Kb |
| --- | --- |
| CCCCNC(=O)NCC1CCC(CNC(=O)c2nn(-c3ccc(Cl)cc3Cl)c(-c3ccc(Cl)cc3)c2C)CC1 (stereo not drawn) [Compound 21d, N-[(4-{[(Butylcarbamoyl)amino]methyl}cyclohexyl)methyl]-5-(4-chlorophenyl)-1-(2,4-dichlorophenyl)-4-methyl-1H-pyrazole-3-carboxamide] | 274 nM |
| Cc1c(C(=O)N2CCC(NC(=O)Nc3ccc(N(C)C)cc3)(c3ccccc3)CC2)nn(-c2ccc(Cl)cc2Cl)c1-c1ccc(Cl)cc1 [Compound 17e, 3-(1-{[5-(4-Chlorophenyl)-1-(2,4-dichlorophenyl)-4-methyl-1H-pyrazol-3-yl]carbonyl}-4-phenylpiperidin-4-yl)-1-[4-(dimethylamino)phenyl]urea] | 264 nM |
| CC(=O)N1CCC(NC(=O)c2nn(-c3ccc(Cl)cc3Cl)c(-c3ccc(Cl)cc3)c2C)CC1 [Compound 18c, N-(1-Acetylpiperidin-4-yl)-5-(4-chlorophenyl)-1-(2,4-dichlorophenyl)-4-methyl-1H-pyrazole-3-carboxamide] | 195 nM |
| CCNC(=O)NCC1CCC(CNC(=O)c2nn(-c3ccc(Cl)cc3Cl)c(-c3ccc(Cl)cc3)c2C)CC1 (stereo not drawn) [Compound 21a, 5-(4-Chlorophenyl)-1-(2,4-dichlorophenyl)-N-[(4-{[(ethylcarbamoyl)amino]methyl}cyclohexyl)methyl]-4-methyl-1H-pyrazole-3-carboxamide] | 135 nM |
| Cc1c(C(=O)N[C@@H]2CCCNC2)nn(-c2ccc(Cl)cc2Cl)c1-c1ccc(Cl)cc1 [Compound 20b, 5-(4-Chlorophenyl)-1-(2,4-dichlorophenyl)-4-methyl-N-[(3R)-piperidin-3-yl]-1H-pyrazole-3-carboxamide] | 1170 nM |
| CCCCNC(=O)N1CCC[C@H](NC(=O)c2nn(-c3ccc(Cl)cc3Cl)c(-c3ccc(Cl)cc3)c2C)C1 [Compound 19h, (3S)-1-N-Butyl-3-C-5-(4-chlorophenyl)-1-(2,4-dichlorophenyl)-4-methyl-1H-pyrazole-3-piperidine-1,3-diamido] | 230 nM |
| CCCNC(=O)NCC1CCC(CNC(=O)c2nn(-c3ccc(Cl)cc3Cl)c(-c3ccc(Cl)cc3)c2C)CC1 (stereo not drawn) [Compound 21c, 5-(4-Chlorophenyl)-1-(2,4-dichlorophenyl)-4-methyl-N-[(4-{[(propylcarbamoyl)amino]methyl}cyclohexyl)methyl]-1H-pyrazole-3-carboxamide] | 486 nM |
| CCNC(=O)N1CCC[C@@H](NC(=O)c2nn(-c3ccc(Cl)cc3Cl)c(-c3ccc(Cl)cc3)c2C)C1 [Compound 20e, (3R)-3-C-5-(4-Chlorophenyl)-1-(2,4-dichlorophenyl)-4-methyl-1H-pyrazole-3-1-N-ethylpiperidine-1,3-diamido] | 171 nM |
| CCCCNC(=O)N1CCC[C@@H](NC(=O)c2nn(-c3ccc(Cl)cc3Cl)c(-c3ccc(Cl)cc3)c2C)C1 [Compound 20h, (3R)-1-N-Butyl-3-C-5-(4-chlorophenyl)-1-(2,4-dichlorophenyl)-4-methyl-1H-pyrazole-3-piperidine-1,3-diamido] | 118 nM |
| Cc1c(C(=O)NCC2CCC(CNC(=O)NC(C)(C)C)CC2)nn(-c2ccc(Cl)cc2Cl)c1-c1ccc(Cl)cc1 (stereo not drawn) [Compound 21e, N-[(4-{[(tert-Butylcarbamoyl)amino]methyl}cyclohexyl)methyl]-5-(4-chlorophenyl)-1-(2,4-dichlorophenyl)-4-methyl-1H-pyrazole-3-carboxamide] | 150 nM |
| Cc1c(C(=O)NC2CCNCC2)nn(-c2ccc(Cl)cc2Cl)c1-c1ccc(Cl)cc1 [Compound 18b, 5-(4-Chlorophenyl)-1-(2,4-dichlorophenyl)-4-methyl-N-(piperidin-4-yl)-1H-pyrazole-3-carboxamide] | 5110 nM |
| CCOC(=O)N1CCC(NC(=O)c2nn(-c3ccc(Cl)cc3Cl)c(-c3ccc(Cl)cc3)c2C)CC1 [Compound 18l, Ethyl-4-[5-(4-chlorophenyl)-1-(2,4-dichlorophenyl)-4-methyl-1H-pyrazole-3-amido]piperidine-1-carboxylate] | 3 nM |
| Cc1c(C(=O)N2CCC(C(=O)O)(c3ccccc3)CC2)nn(-c2ccc(Cl)cc2Cl)c1-c1ccc(Cl)cc1 [Compound 10, 1-{[5-(4-Chlorophenyl)-1-(2,4-dichlorophenyl)-4-methyl-1H-pyrazol-3-yl]carbonyl}-4-phenylpiperidine-4-carboxylic acid] | 1170 nM |
| Cc1c(C(=O)N[C@H]2CCCN(C(=O)NC(C)C)C2)nn(-c2ccc(Cl)cc2Cl)c1-c1ccc(Cl)cc1 [Compound 19f, (3S)-3-C-5-(4-Chlorophenyl)-1-(2,4-dichlorophenyl)-4-methyl-1H-pyrazole-3-1-N-(propan-2-yl)piperidine-1,3-diamido] | 265 nM |
| Cc1c(C(=O)N[C@H]2CCCNC2)nn(-c2ccc(Cl)cc2Cl)c1-c1ccc(Cl)cc1 [Compound 19b, 5-(4-Chlorophenyl)-1-(2,4-dichlorophenyl)-4-methyl-N-[(3S)-piperidin-3-yl]-1H-pyrazole-3-carboxamide] | 1880 nM |
| Cc1c(C(=O)NCC2CCC(CNC(=O)NC(C)C)CC2)nn(-c2ccc(Cl)cc2Cl)c1-c1ccc(Cl)cc1 (stereo not drawn) [Compound 21b, 5-(4-Chlorophenyl)-1-(2,4-dichlorophenyl)-4-methyl-N-{[4-({[(propan-2-yl)carbamoyl]amino}methyl)cyclohexyl]methyl}-1H-pyrazole-3-carboxamide] | 351 nM |
| Cc1c(C(=O)NC2CCN(S(N)(=O)=O)CC2)nn(-c2ccc(Cl)cc2Cl)c1-c1ccc(Cl)cc1 [Compound 18e, 5-(4-Chlorophenyl)-1-(2,4-dichlorophenyl)-4-methyl-N-(1-sulfamoylpiperidin-4-yl)-1H-pyrazole-3-carboxamide] | 592 nM |
| Cc1c(C(=O)N[C@@H]2CCCN(C(=O)NC(C)(C)C)C2)nn(-c2ccc(Cl)cc2Cl)c1-c1ccc(Cl)cc1 [Compound 20i, (3R)-1-N-tert-Butyl-3-C-5-(4-chlorophenyl)-1-(2,4-dichlorophenyl)-4-methyl-1H-pyrazole-3-piperidine-1,3-diamido] | 268 nM |
| Cc1c(C(=O)NC2CCN(S(C)(=O)=O)CC2)nn(-c2ccc(Cl)cc2Cl)c1-c1ccc(Cl)cc1 [Compound 18d, 5-(4-Chlorophenyl)-1-(2,4-dichlorophenyl)-N-(1-methanesulfonylpiperidin-4-yl)-4-methyl-1H-pyrazole-3-carboxamide] | 269 nM |
| Cc1c(C(=O)N[C@H]2CCCN(C(=O)NC(C)(C)C)C2)nn(-c2ccc(Cl)cc2Cl)c1-c1ccc(Cl)cc1 [Compound 19i, (3S)-1-N-tert-Butyl-3-C-5-(4-chlorophenyl)-1-(2,4-dichlorophenyl)-4-methyl-1H-pyrazole-3-piperidine-1,3-diamido] | 206 nM |
| CCNC(=O)N1CCC[C@H](NC(=O)c2nn(-c3ccc(Cl)cc3Cl)c(-c3ccc(Cl)cc3)c2C)C1 [Compound 19e, (3S)-3-C-5-(4-Chlorophenyl)-1-(2,4-dichlorophenyl)-4-methyl-1H-pyrazole-3-1-N-ethylpiperidine-1,3-diamido] | 280 nM |
| Cc1c(C(=O)N[C@@H]2CCCN(S(C)(=O)=O)C2)nn(-c2ccc(Cl)cc2Cl)c1-c1ccc(Cl)cc1 [Compound 20d, 5-(4-Chlorophenyl)-1-(2,4-dichlorophenyl)-N-[(3R)-1-methanesulfonylpiperidin-3-yl]-4-methyl-1H-pyrazole-3-carboxamide] | 7 nM |
| Cc1c(C(=O)N[C@H]2CCCN(C(=O)OC(C)(C)C)C2)nn(-c2ccc(Cl)cc2Cl)c1-c1ccc(Cl)cc1 [Compound 19a, tert-Butyl-(3S)-3-[5-(4-chlorophenyl)-1-(2,4-dichlorophenyl)-4-methyl-1H-pyrazole-3-amido]piperidine-1-carboxylate] | 842 nM |
| Cc1c(C(=O)N[C@H]2CCCN(S(C)(=O)=O)C2)nn(-c2ccc(Cl)cc2Cl)c1-c1ccc(Cl)cc1 [Compound 19d, 5-(4-Chlorophenyl)-1-(2,4-dichlorophenyl)-N-[(3S)-1-methanesulfonylpiperidin-3-yl]-4-methyl-1H-pyrazole-3-carboxamide] | 62 nM |
| CC(=O)N1CCC[C@@H](NC(=O)c2nn(-c3ccc(Cl)cc3Cl)c(-c3ccc(Cl)cc3)c2C)C1 [Compound 20c, N-[(3R)-1-Acetylpiperidin-3-yl]-5-(4-chlorophenyl)-1-(2,4-dichlorophenyl)-4-methyl-1H-pyrazole-3-carboxamide] | 530 nM |

Same assay, conditions: Ke CB1, fold more potent than 7

| SMILES | potency relative to sulfonamide 7 |
| --- | --- |
| Cc1c(C(=O)N[C@@H]2CCCN(S(C)(=O)=O)C2)nn(-c2ccc(Cl)cc2Cl)c1-c1ccc(Cl)cc1 [Compound 20d, 5-(4-Chlorophenyl)-1-(2,4-dichlorophenyl)-N-[(3R)-1-methanesulfonylpiperidin-3-yl]-4-methyl-1H-pyrazole-3-carboxamide] | 16 fold |

Same assay, conditions: apparent dissociation affinity constant; rightward shift of CP55940 curve

| SMILES | Ke (nM) CB1 |
| --- | --- |
| Cc1c(C(=O)N2CCC(NC(=O)NCc3ccccc3)(c3ccccc3)CC2)nn(-c2ccc(Cl)cc2Cl)c1-c1ccc(Cl)cc1 [Compound 17b, 1-Benzyl-3-(1-{[5-(4-chlorophenyl)-1-(2,4-dichlorophenyl)-4-methyl-1H-pyrazol-3-yl]carbonyl}-4-phenylpiperidin-4-yl)urea] | 2.09 nM |

Target: T1, CB1
Assay: Radioligand displacement of [3H]CP55940 at CB1
Assay type: binding
Details: Ki vs CP55940

| SMILES | selectivity for CB1 versus CB2 |
| --- | --- |
| Cc1c(C(=O)N[C@@H]2CCCN(S(C)(=O)=O)C2)nn(-c2ccc(Cl)cc2Cl)c1-c1ccc(Cl)cc1 [Compound 20d, 5-(4-Chlorophenyl)-1-(2,4-dichlorophenyl)-N-[(3R)-1-methanesulfonylpiperidin-3-yl]-4-methyl-1H-pyrazole-3-carboxamide] | over 100 fold |
| Cc1c(C(=O)N[C@H]2CCCN(S(C)(=O)=O)C2)nn(-c2ccc(Cl)cc2Cl)c1-c1ccc(Cl)cc1 [Compound 19d, 5-(4-Chlorophenyl)-1-(2,4-dichlorophenyl)-N-[(3S)-1-methanesulfonylpiperidin-3-yl]-4-methyl-1H-pyrazole-3-carboxamide] | over 100 fold |
